Legend:
Experiment in all cases: relative viability (nuclei count vs DMSO), 5 days (fraction); higher = more cells survive
[1] = compound: CN[C@@H]1C[C@H]2O[C@@](C)([C@@H]1OC)n1c3ccccc3c3c4c(c5c6ccccc6n2c5c31)C(=O)NC4 [Staurosporine] + Cc1cc(Nc2cc(N3CCN(C)CC3)nc(Sc3ccc(NC(=O)C4CC4)cc3)n2)n[nH]1 [Tozasertib] (partner 0.1 µM)
Summary of the method: (§1)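 Lung cancer cell lines in 1536-well plates were dosed by pin tool the day after seeding, either with one drug alone or with a fixed anchor-drug dose plus five library-drug doses (not always all listed) in √10 steps. After 5 days, cells were fixed and their nuclei stained in one step (final 0.05% Triton X-100, 1% formaldehyde, 1 ug/ml Hoechst), then counted on 4× images. Relative viability is the nuclei count in treated wells divided by that in vehicle wells. Values are medians of duplicate plates.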

[2] = compound: O=c1[nH]cc(F)c(=O)[nH]1 [5-Fluorouracil] + C[C@@H](Oc1cc(-c2cnn(C3CCNCC3)c2)cnc1N)c1c(Cl)ccc(F)c1Cl [Crizotinib] (partner 1 µM)
Summary of the method: as §1

Sulindac + OSI-027 = compound: CC1=C(CC(=O)O)c2cc(F)ccc2/C1=C\c1ccc([S+](C)[O-])cc1 [Sulindac] + COc1cccc2cc(-c3nc([C@H]4CC[C@H](C(=O)O)CC4)n4ncnc(N)c34)[nH]c12 [OSI-027] (partner 0.5 µM)
Summary of the method: as §1

[3] = compound: O=c1[nH]cc(F)c(=O)[nH]1 [5-Fluorouracil] + O=C(CCCCCCC(=O)Nc1ccccc1)NO [Vorinostat] (partner 1 µM)
Summary of the method: as §1

Cell Line	relative viability ([1]; first compound 0.005 µM)	relative viability ([1]; first compound 0.01581 µM)	relative viability ([1]; first compound 0.05 µM)	relative viability ([1]; first compound 0.1581 µM)	relative viability ([1]; first compound 0.5 µM)	relative viability ([2]; first compound 0.02 µM)	relative viability ([2]; first compound 0.2 µM)	relative viability ([2]; first compound 0.6325 µM)	relative viability ([2]; first compound 2 µM)	relative viability (Sulindac + OSI-027; first compound 0.08 µM)	relative viability (Sulindac + OSI-027; first compound 0.253 µM)	relative viability (Sulindac + OSI-027; first compound 2.53 µM)	relative viability (Sulindac + OSI-027; first compound 8 µM)	relative viability ([3]; first compound 0.02 µM)	relative viability ([3]; first compound 0.2 µM)	relative viability ([3]; first compound 0.6325 µM)	relative viability ([3]; first compound 2 µM)	relative viability (Sulindac + OSI-027; first compound 0.8 µM)
NCI-H1651	0.66	0.675	0.371	0.237	0.185	0.825	0.838	0.452	0.38	0.783	0.698	0.801	0.85	0.529	0.531	0.246	0.245	
NCI-H1993	0.639	0.535	0.434	0.491	0.429	0.773	0.839	0.645	0.622	0.513	0.554	0.542	0.581	0.846	0.552	0.494	0.547	0.495
COR-L23	0.102	0.112	0.0926	0.0869	0.0647	0.789	0.556	0.478	0.148	1.09	0.777	0.743	0.94	0.455	0.372	0.239	0.159	0.609
HCC-44	0.426	0.136	0.168	0.135	0.112	0.848	0.768	0.578	0.324	0.463	0.592	0.519	0.734	1.09	1.07	0.824	0.544	
LOU-NH91	0.727	0.483	0.375	0.302	0.191	0.798	0.697	0.547	0.341	0.681	0.714	0.705	0.73	0.937	0.988	0.607	0.35	0.808
NCI-H520	0.57	0.473	0.423	0.366	0.303	0.819	0.832	0.6	0.372	0.266	0.266	0.232	0.307	0.673	0.681	0.528	0.394	
NCI-H661	0.392	0.445	0.401	0.335	0.238	0.973	1.11	1.05	1.02	0.735	0.838	0.711	0.797	0.835	0.818	0.786	0.809	0.622
NCI-H1975	0.363	0.205	0.128	0.0804	0.0788	1	1.01	0.429	0.263	0.93	0.762	0.759	0.835	0.748	0.457	0.302	0.215	0.489
NCI-H1755	0.474	0.311	0.207	0.184	0.219	0.838	0.655	0.313	0.258	0.776	0.64	0.733	0.763	0.777	0.493	0.307	0.306	0.661
NCI-H2009	0.295	0.312	0.176	0.19	0.0978	1.12	0.989	0.765	0.646	0.732	0.77	0.626	0.731	0.75	0.825	0.753	0.396	0.582
LK-2	0.164		0.156	0.149	0.151	0.246		0.21	0.221	0.186	0.209	0.17	0.21	0.275	0.3	0.303	0.304	0.201
HCC-78	0.545	0.287	0.424	0.429	0.258	0.331	0.311	0.254		0.385	0.395	0.329	0.381	0.463	0.426	0.325	0.232	0.399
NCI-H3122	0.441		0.246	0.134	0.0837	0.252	0.274	0.232	0.215	1.07	1.02	0.937	1.13	0.985	0.867	0.392		0.864
HOP-62	0.349	0.237	0.114	0.128	0.103	0.938	0.733	0.9	0.781	0.825	0.976	0.946	0.91	0.629	0.699	0.626	0.509	
NCI-H727	0.562	0.429	0.303	0.318	0.297	1.07	1.05	0.891	0.703	0.561	0.538	0.537	1	0.953	1.14	1	0.902	
NCI-H358	0.0876	0.0765	0.0699	0.0598	0.0619	0.965	0.664	0.671	0.282	0.941	0.891	0.727	0.891	0.837	0.664	0.529	0.192	0.657
BEN	0.587	0.743	0.484	0.434	0.325	1.02	0.719	0.615	0.718	0.312	0.271	0.321	0.301	0.566	0.641	0.579	0.633	0.29
NCI-H460	0.698	0.113	0.304	0.0517	0.0214	1	0.44	0.186	0.0322	1.5	0.811	0.688	0.77	0.903	0.222	0.082	0.0565	0.566
